From US20190144423A1, “AMIDE-SUBSTITUTED PYRIDINYLTRIAZOLE DERIVATIVES AND USES THEREOF” (BAYER PHARMA AKTIENGESELLSCHAFT, priority 2016, published 2019)

Experiments:
human V2 receptor = target: T1, human V2 receptor (Homo sapiens, UniProt P30518); experiment: Cellular in vitro assay for determining vasopressin receptor activity (V2 cell line, CRE-luciferase); format: cell-based; conditions: CHO cell line transfected with human V2 receptor; antagonism of [Arg8]-vasopressin at EC50; Table 1A, compounds of the invention; read-out: IC50 hV2
T1 construct: expressed in transfected cells; host or cells: CHO K1 (ATCC) line expressing firefly luciferase under a CRE-responsive promoter
Method: (§1) B-1. Cellular In Vitro Assay for Determining Vasopressin Receptor Activity
(§2) The identification of agonists and antagonists of the V1a and V2 vasopressin receptors from humans, rats and dogs as well as the quantification of the activity of the compounds of the invention is carried out using recombinant cell lines. These cell lines originally derive from a hamster's ovary epithelial cell (Chinese Hamster Ovary, CHO K1, ATCC: American Type Culture Collection, Manassas, Va. 20108, USA). The test cell lines constitutively express the human, rat or dog V1a or V2 receptors. In case of the Gαq-coupled V1a receptors, cells are also stably transfected with a modified form of the calcium-sensitive photoproteins aequorin (human and rat V1a) or obelin (dog V1a), which, after reconstitution with the cofactor coelenterazine, emit light when there are increases in free calcium concentrations [Rizzuto R, Simpson A W, Brini M, Pozzan T, Nature 358, 325-327 (1992); Illarionov B A, Bondar V S, Illarionova V A, Vysotski E S, Gene 153 (2), 273-274 (1995)]. The resulting vasopressin receptor cells react to stimulation of the recombinantly expressed V1a receptors by intracellular release of calcium ions, which can be quantified by the resulting photoprotein luminescence. The Gs-coupled V2 receptors are stably transfected into cell lines expressing the gene for firefly luciferase under control of a CRE-responsible promoter. Activation of V2 receptors induces the activation of the CRE-responsive promoter via cAMP increase, thereby inducing the expression of firefly luciferase. The light emitted by photoproteins of V1a cell lines as well as the light emitted by firefly luciferase of V2 cell lines corresponds to the activation or inhibition of the respective vasopressin receptor. The bioluminescence of the cell lines is detected using a suitable luminometer [Milligan G, Marshall F, Rees S, Trends in Pharmacological Sciences 17, 235-237 (1996)].
Vasopressin V2 Receptor Cell Lines:
On the day before the assay, the cells are plated out in culture medium (DMEM/F12, 2% FCS, 2 mM glutamine, 10 mM HEPES) in 384-well microtiter plates and kept in a cell incubator (96% humidity, 5% v/v CO2, 37° C.). On the day of the assay, test compounds in various concentrations and the agonist [Arg^s]-vasopressin at EC50 concentration are added together to the wells, and plates are incubated for 3 hours in a cell incubator. Upon addition of the cell lysis reagent Triton™ and the substrate luciferin, luminescence of firefly luciferase is measured in a luminometer.
(§3) Table 1A below lists individual IC50 values for the compounds of the invention (including racemic mixtures as well as separated enantiomers) that were obtained from cell lines transfected with the human V1a or V2 receptor: […]

human V1a receptor = target: T2, human V1a receptor (Homo sapiens, UniProt P37288); experiment: Cellular in vitro assay for determining vasopressin receptor activity (V1a cell line, aequorin luminescence); format: cell-based; conditions: Table 1A, compounds of the invention; for IC50: CHO cell line transfected with human V1a receptor, antagonism of [Arg8]-vasopressin at EC50, read-out: IC50 hV1a; for ratio IC50 hV2/hV1a: selectivity ratio
T2 construct: expressed in transfected cells; host or cells: CHO K1 (ATCC), also stably transfected with a modified aequorin
Method: as §1, §2
Vasopressin V1a Receptor Cell Lines:
On the day before the assay, the cells are plated out in culture medium (DMEM/F12, 2% FCS, 2 mM glutamine, 10 mM HEPES, 5 μg/ml coelenterazine) in 384-well microtiter plates and kept in a cell incubator (96% humidity, 5% v/v CO2, 37° C.). On the day of the assay, test compounds in various concentrations are placed for 10 minutes in the wells of the microtiter plate before the agonist [Arg^8]-vasopressin at EC50 concentration is added. The resulting light signal is measured immediately in a luminometer.
as §3

T1 sequence (P30518 whole entry): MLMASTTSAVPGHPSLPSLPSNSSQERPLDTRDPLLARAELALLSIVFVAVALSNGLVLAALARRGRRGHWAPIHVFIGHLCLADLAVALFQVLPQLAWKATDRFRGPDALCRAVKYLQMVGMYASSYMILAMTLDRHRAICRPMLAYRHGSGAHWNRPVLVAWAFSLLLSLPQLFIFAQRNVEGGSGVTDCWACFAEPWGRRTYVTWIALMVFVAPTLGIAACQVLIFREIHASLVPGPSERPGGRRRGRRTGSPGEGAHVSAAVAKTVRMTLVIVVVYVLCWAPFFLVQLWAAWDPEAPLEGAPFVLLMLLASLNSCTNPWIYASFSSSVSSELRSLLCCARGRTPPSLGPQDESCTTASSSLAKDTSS
T2 sequence (P37288 whole entry): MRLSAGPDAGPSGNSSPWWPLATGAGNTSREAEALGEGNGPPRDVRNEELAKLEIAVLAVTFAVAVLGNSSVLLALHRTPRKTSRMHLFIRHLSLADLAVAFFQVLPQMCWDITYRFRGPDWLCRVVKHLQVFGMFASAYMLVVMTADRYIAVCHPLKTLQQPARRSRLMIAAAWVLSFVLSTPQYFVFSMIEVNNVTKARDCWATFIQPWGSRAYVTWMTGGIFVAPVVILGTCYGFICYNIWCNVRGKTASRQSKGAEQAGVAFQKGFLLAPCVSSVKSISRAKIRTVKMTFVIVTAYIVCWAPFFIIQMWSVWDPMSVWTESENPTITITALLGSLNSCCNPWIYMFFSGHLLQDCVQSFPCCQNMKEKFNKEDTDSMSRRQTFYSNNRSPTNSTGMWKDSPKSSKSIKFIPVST

`NC(=O)c1nc(Cn2nc(-c3ccc(Cl)cc3)n(C[C@H](O)C(F)(F)F)c2=O)nn1-c1ncccc1Cl` [Example 1, 3-({3-(4-Chlorophenyl)-5-oxo-4-[(2S)-3,3,3-trifluoro-2-hydroxypropyl]-4,5-dihydro-1H-1,2,4-triazol-1-yl}methyl)-1-(3-chloropyridin-2-yl)-1H-1,2,4-triazole-5-carboxamide] was tested, and the IC50 (human V2 receptor) was 39 nM and the IC50 (human V1a receptor) was 1.02 nM.
In the case of `NC(=O)c1nc(Cn2nc(-c3ccc(Cl)cc3)n(C[C@H](O)C(F)(F)F)c2=O)nn1-c1ncccc1C(F)(F)F` [Example 2, 3-({3-(4-Chlorophenyl)-5-oxo-4-[(2S)-3,3,3-trifluoro-2-hydroxypropyl]-4,5-dihydro-1H-1,2,4-triazol-1-yl}methyl)-1-[3-(trifluoromethyl)pyridin-2-yl]-1H-1,2,4-triazole-5-carboxamide], the IC50 (human V2 receptor) is reported as 170 nM and the IC50 (human V1a receptor) is reported as 1.2 nM.
In the case of `NC(=O)c1nc(Cn2nc(-c3ccc(Cl)cc3)n(C[C@H](O)C(F)(F)F)c2=O)nn1-c1ncccc1OC(F)(F)F` [Example 3, 3-({3-(4-Chlorophenyl)-5-oxo-4-[(2S)-3,3,3-trifluoro-2-hydroxypropyl]-4,5-dihydro-1H-1,2,4-triazol-1-yl}methyl)-1-[3-(trifluoromethoxy)pyridin-2-yl]-1H-1,2,4-triazole-5-carboxamide], the IC50 (human V2 receptor) is reported as 875 nM and the IC50 (human V1a receptor) is reported as 16 nM.
`NC(=O)c1nc(Cn2nc(-c3ccc(Cl)cc3)n(C[C@H](O)C(F)(F)F)c2=O)nn1-c1ncccc1Br` [Example 4, 1-(3-Bromopyridin-2-yl)-3-({3-(4-chlorophenyl)-5-oxo-4-[(2S)-3,3,3-trifluoro-2-hydroxypropyl]-4,5-dihydro-1H-1,2,4-triazol-1-yl}methyl)-1H-1,2,4-triazole-5-carboxamide] was tested, and the IC50 (human V2 receptor) was 89.3 nM and the IC50 (human V1a receptor) was 1.23 nM.
`CCOC(=O)c1cccnc1-n1nc(Cn2nc(-c3ccc(Cl)cc3)n(C[C@H](O)C(F)(F)F)c2=O)nc1C(N)=O` [Example 5, Ethyl 2-[5-carbamoyl-3-({3-(4-chlorophenyl)-5-oxo-4-[(2S)-3,3,3-trifluoro-2-hydroxypropyl]-4,5-dihydro-1H-1,2,4-triazol-1-yl}methyl)-1H-1,2,4-triazol-1-yl]nicotinate] was tested, and the IC50 (human V2 receptor) was 1240 nM and the IC50 (human V1a receptor) was 14.5 nM.
In the case of `NC(=O)c1nc(Cn2nc(-c3ccc(Cl)cc3)n(C[C@H](O)C(F)(F)F)c2=O)nn1-c1cnccc1Cl` [Example 6, 3-({3-(4-Chlorophenyl)-5-oxo-4-[(2S)-3,3,3-trifluoro-2-hydroxypropyl]-4,5-dihydro-1H-1,2,4-triazol-1-yl}methyl)-1-(4-chloropyridin-3-yl)-1H-1,2,4-triazole-5-carboxamide], the IC50 (human V2 receptor) is reported as 25 nM and the IC50 (human V1a receptor) is reported as 0.57 nM.
`NC(=O)c1nc(Cn2nc(-c3ccc(Cl)cc3)n(C[C@H](O)C(F)(F)F)c2=O)nn1-c1cnccc1C(F)(F)F` [Example 7, 3-({3-(4-Chlorophenyl)-5-oxo-4-[(2S)-3,3,3-trifluoro-2-hydroxypropyl]-4,5-dihydro-1H-1,2,4-triazol-1-yl}methyl)-1-[4-(trifluoromethyl)pyridin-3-yl]-1H-1,2,4-triazole-5-carboxamide] gave an IC50 (human V2 receptor) of 293 nM and an IC50 (human V1a receptor) of 2.5 nM.
`CCOC(=O)c1ccncc1-n1nc(Cn2nc(-c3ccc(Cl)cc3)n(C[C@H](O)C(F)(F)F)c2=O)nc1C(N)=O` [Example 8, Ethyl 3-[5-carbamoyl-3-({3-(4-chlorophenyl)-5-oxo-4-[(2S)-3,3,3-trifluoro-2-hydroxypropyl]-4,5-dihydro-1H-1,2,4-triazol-1-yl}methyl)-1H-1,2,4-triazol-1-yl]isonicotinate] was tested, and the IC50 (human V2 receptor) was 892 nM, the IC50 (human V1a receptor) was 25.5 nM and the “ratio IC50 hV2/hV1a” value (human V1a receptor) was 35.0.
In the case of `NC(=O)c1cccnc1-n1nc(Cn2nc(-c3ccc(Cl)cc3)n(C[C@H](O)C(F)(F)F)c2=O)nc1C(N)=O` [Example 9, 2-[5-carbamoyl-3-({3-(4-chlorophenyl)-5-oxo-4-[(2S)-3,3,3-trifluoro-2-hydroxypropyl]-4,5-dihydro-1H-1,2,4-triazol-1-yl}methyl)-1H-1,2,4-triazol-1-yl]nicotinamide], the IC50 (human V2 receptor) is reported as 2250 nM, the IC50 (human V1a receptor) is reported as 75 nM and the “ratio IC50 hV2/hV1a” value (human V1a receptor) is reported as 30.0.
`NC(=O)c1nc(Cn2nc(-c3ccc(Cl)cc3)n(C[C@@H](O)C(F)(F)F)c2=O)nn1-c1ncccc1Cl` [Example 10, 3-({3-(4-Chlorophenyl)-5-oxo-4-[(2R)-3,3,3-trifluoro-2-hydroxypropyl]-4,5-dihydro-1H-1,2,4-triazol-1-yl}methyl)-1-(3-chloropyridin-2-yl)-1H-1,2,4-triazole-5-carboxamide] showed an IC50 (human V2 receptor) of 790 nM and an IC50 (human V1a receptor) of 6.8 nM.
For `NC(=O)c1nc(Cn2nc(-c3ccc(Cl)cc3)n(C[C@@H](O)C(F)(F)F)c2=O)nn1-c1ncccc1C(F)(F)F` [Example 11, 3-({3-(4-Chlorophenyl)-5-oxo-4-[(2R)-3,3,3-trifluoro-2-hydroxypropyl]-4,5-dihydro-1H-1,2,4-triazol-1-yl}methyl)-1-[3-(trifluoromethyl)pyridin-2-yl]-1H-1,2,4-triazole-5-carboxamide], the IC50 (human V2 receptor) was 610 nM and the IC50 (human V1a receptor) was 3.1 nM.
`NC(=O)c1nc(Cn2nc(-c3ccc(Cl)cc3)n(C[C@@H](O)C(F)(F)F)c2=O)nn1-c1cnccc1Cl` [Example 12, 3-({3-(4-Chlorophenyl)-5-oxo-4-[(2R)-3,3,3-trifluoro-2-hydroxypropyl]-4,5-dihydro-H-1,2,4-triazol-1-yl}methyl)-1-(4-chloropyridin-3-yl)-1H-1,2,4-triazole-5-carboxamide] gave an IC50 (human V2 receptor) of 860 nM and an IC50 (human V1a receptor) of 3.45 nM.
`NC(=O)c1nc(Cn2nc(-c3ccc(Cl)cc3)n(C[C@@H](O)C(F)(F)F)c2=O)nn1-c1cnccc1C(F)(F)F` [Example 13, 3-({3-(4-Chlorophenyl)-5-oxo-4-[(2R)-3,3,3-trifluoro-2-hydroxypropyl]-4,5-dihydro-H-1,2,4-triazol-1-yl}methyl)-1-[4-(trifluoromethyl)pyridin-3-yl]-1H-1,2,4-triazole-5-carboxamide] was tested, and the IC50 (human V2 receptor) was 690 nM and the IC50 (human V1a receptor) was 1.6 nM.
In the case of `NC(=O)c1nc(Cn2nc(-c3ccc(Cl)cc3)n(CC(=O)C(F)(F)F)c2=O)nn1-c1ncccc1Cl` [Example 14, 3-{[3-(4-Chlorophenyl)-5-oxo-4-(3,3,3-trifluoro-2-oxopropyl)-4,5-dihydro-H-1,2,4-triazol-1-yl]methyl}-1-(3-chloropyridin-2-yl)-1H-1,2,4-triazole-5-carboxamide], the IC50 (human V2 receptor) is reported as 104 nM, the IC50 (human V1a receptor) is reported as 5.2 nM and the “ratio IC50 hV2/hV1a” value (human V1a receptor) is reported as 20.0.
Molecule `NC(=O)c1nc(Cn2nc(-c3ccc(Cl)cc3)n(CC(=O)C(F)(F)F)c2=O)nn1-c1ncccc1Br` [Example 15, 1-(3-Bromopyridin-2-yl)-3-{[3-(4-chlorophenyl)-5-oxo-4-(3,3,3-trifluoro-2-oxopropyl)-4,5-dihydro-1H-1,2,4-triazol-1-yl]methyl}-1H-1,2,4-triazole-5-carboxamide] has an IC50 (human V2 receptor) of 637 nM and an IC50 (human V1a receptor) of 13.5 nM.
For `NC(=O)c1nc(Cn2nc(-c3ccc(Cl)cc3)n(CC(=O)C(F)(F)F)c2=O)nn1-c1cnccc1Cl` [Example 16, 3-{[3-(4-Chlorophenyl)-5-oxo-4-(3,3,3-trifluoro-2-oxopropyl)-4,5-dihydro-1H-1,2,4-triazol-1-yl]methyl}-1-(4-chloropyridin-3-yl)-1H-1,2,4-triazole-5-carboxamide], the IC50 (human V2 receptor) was 75 nM and the IC50 (human V1a receptor) was 1.4 nM.
`NC(=O)c1nc(Cn2nc(-c3ccc(Cl)cc3)n(CC(=O)C(F)(F)F)c2=O)nn1-c1ncccc1C(F)(F)F` [Example 17, 3-{[3-(4-Chlorophenyl)-5-oxo-4-(3,3,3-trifluoro-2-oxopropyl)-4,5-dihydro-H-1,2,4-triazol-1-yl]methyl}-1-[3-(trifluoromethyl)pyridin-2-yl]-1H-1,2,4-triazole-5-carboxamide] was tested, and the “ratio IC50 hV2/hV1a” value (human V1a receptor) was 66.0.
